From patent US6737383B1, “Herbicidal oxadiazolidines” (priority 1999, dated 2004)

Key:
[1] = tested on: bamyardgrass; test: Test B flood test barnyardgrass; format: in vivo, Echinochloa crus-galli
Method in brief: (§1)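 Flood test on plants grown to the 2-leaf stage; treated plants kept in greenhouse twelve to sixteen days, then visually rated against controls on a 0 (no effect) to 10 (complete control) scale.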

[2] = tested on: sugar beet; test: Test B pre/postemergence sugar beet; format: in vivo, Beta vulgaris
Method in brief: (§2)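 Test chemicals in a non-phytotoxic solvent mixture with surfactant were sprayed preemergence onto planted seeds and postemergence onto plants 2 to 18 cm tall (1- to 4-leaf stage). After twelve to sixteen days in a greenhouse, injury was visually rated against untreated controls from 0 (no effect) to 10 (complete control).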

[3] = tested on: purple nutsedge; test: Test B pre/postemergence purple nutsedge; format: in vivo, Cyperus rotundus
Method in brief: as §2

[4] = tested on: pigweed; test: Test B pre/postemergence pigweed; format: in vivo, Amaranthus retroflexus
Method in brief: as §2

[5] = tested on: corn; test: Test B pre/postemergence corn; format: in vivo, Zea mays
Method in brief: as §2

[6] = tested on: velvetleaf; test: Test B pre/postemergence velvetleaf; format: in vivo, Abutilon theophrasti
Method in brief: as §2

[7] = tested on: blackgrass; test: Test B pre/postemergence blackgrass; format: in vivo, Alopecurus myosuroides
Method in brief: as §2

[8] = tested on: surinam grass; test: Test B pre/postemergence surinam grass; format: in vivo, Brachiaria decumbens
Method in brief: as §2

[9] = tested on: soybean; test: Test B pre/postemergence soybean; format: in vivo, Glycine max
Method in brief: as §2

[10] = tested on: rape; test: Test B pre/postemergence rape; format: in vivo, Brassica napus
Method in brief: as §2

[11] = tested on: giant foxtail; test: Test B pre/postemergence giant foxtail; format: in vivo, Setaria faberii
Method in brief: as §2

[12] = tested on: rice; test: Test B flood test rice; format: in vivo, Oryza sativa
Method in brief: as §1

[13] = tested on: morningglory; test: Test B pre/postemergence morningglory; format: in vivo, Ipomoea hederacea
Method in brief: as §2

[14] = tested on: smallflower flatsedge; test: Test B flood test smallflower flatsedge; format: in vivo, Cyperus difformis
Method in brief: as §1

[15] = tested on: bedstraw; test: Test B pre/postemergence bedstraw; format: in vivo, Galium aparine
Method in brief: as §2

[16] = tested on: duck salad; test: Test B flood test duck salad; format: in vivo, Heteranthera limosa
Method in brief: as §1

[17] = Rate 62 g/ha, headed Pre-emergence (flood test species), scale 0 to 10 (0 no effect, 10 complete control)
[18] = Rate 125 g/ha, Pre-emergence, flood test species, scale 0 to 10 where 0 is no effect and 10 is complete control
[19] = Rate 250 g/ha, Pre-emergence, flood-test species, scale 0 to 10, 0 is no effect, 10 is complete control
[20] = Rate 500 g/ha, Pre-emergence, flood test species, scale 0 to 10 (0 no effect, 10 complete control)
[21] = Preemergence, Rate 62 g/ha, scale of 0 to 10 where 0 is no effect and 10 is complete control
[22] = Preemergence, Rate 250 g/ha, scale of 0 to 10 where 0 is no effect and 10 is complete control
[23] = Preemergence, Rate 500 g/ha, scale of 0 to 10 where 0 is no effect and 10 is complete control
[24] = Rate 62 g/ha, Postemergence, scale of 0 to 10 where 0 is no effect and 10 is complete control
[25] = Rate 125 g/ha, Preemergence, scale of 0 to 10 where 0 is no effect and 10 is complete control
[26] = Rate 500 g/ha, Postemergence, scale 0 to 10, 0 no effect, 10 complete control
[27] = Rate 125 g/ha, Postemergence, scale 0 to 10
[28] = Rate 125 g/ha, Postemergence, scale of 0 to 10 where 0 is no effect and 10 is complete control
[29] = Rate 250 g/ha, Postemergence, scale of 0 to 10 where 0 is no effect and 10 is complete control

CC(C)N(C(=O)n1oc(=O)n(C2CC2)c1=O)c1ccc(Cl)cc1 [Compound 241]
Barnyardgrass plant response rating [1, 17]: 0
Barnyardgrass plant response rating [1, 18]: 0
Barnyardgrass plant response rating [1, 19]: 0
Barnyardgrass plant response rating [1, 20]: 0
Sugarbeets plant response rating [2, 21]: 0
Sugarbeets plant response rating [2, 22]: 6
Plant response rating, Sugarbeets [2, 23]: 6
Sugarbeets plant response rating [2, 24]: 0
Sugarbeets plant response rating [2, 25]: 0
Sugarbeets plant response rating [2, 26]: 5
Nutsedge plant response rating [3, 22]: 10
Plant response rating, Nutsedge [3, 23]: 10
Nutsedge plant response rating [3, 24]: 0
Nutsedge plant response rating [3, 25]: 0
Plant response rating (0 to 10; 0 is no effect, 10 is complete control), Nutsedge ([3]; Rate 250 g/ha, Postemergence): 0
Nutsedge plant response rating [3, 26]: 6
Redroot pigweed plant response rating [4, 21]: 0
Redroot pigweed plant response rating [4, 22]: 9
Plant response rating, Redroot pigweed [4, 23]: 10
Redroot pigweed plant response rating [4, 24]: 0
Redroot pigweed plant response rating [4, 25]: 0
Plant response rating (0 to 10; 0 is no effect, 10 is complete control), Redroot pigweed ([4]; Rate 250 g/ha, Postemergence): 0
Redroot pigweed plant response rating [4, 26]: 7
Corn plant response rating [5, 21]: 0
Corn plant response rating [5, 22]: 0
Plant response rating, Corn [5, 23]: 5
Corn plant response rating [5, 24]: 0
Corn plant response rating [5, 27]: 0
Corn plant response rating [5, 25]: 0
Plant response rating (0 to 10; 0 is no effect, 10 is complete control), Corn ([5]; Rate 250 g/ha, Postemergence): 0
Corn plant response rating [5, 26]: 0
Velvetleaf plant response rating [6, 21]: 2
Velvetleaf plant response rating [6, 22]: 5
Plant response rating, Velvetleaf [6, 23]: 7
Velvetleaf plant response rating [6, 24]: 2
Velvetleaf plant response rating [6, 25]: 5
Velvetleaf plant response rating [6, 26]: 1
Blackgrass plant response rating [7, 21]: 6
Blackgrass plant response rating [7, 22]: 7
Plant response rating, Blackgrass [7, 23]: 10
Blackgrass plant response rating [7, 24]: 3
Blackgrass plant response rating [7, 27]: 7
Blackgrass plant response rating [7, 25]: 6
Plant response rating (0 to 10; 0 is no effect, 10 is complete control), Blackgrass ([7]; Rate 250 g/ha, Postemergence): 8
Blackgrass plant response rating [7, 26]: 9
B. signalgrass plant response rating [8, 21]: 0
B. signalgrass plant response rating [8, 22]: 4
Plant response rating, B. signalgrass [8, 23]: 4
B. signalgrass plant response rating [8, 24]: 0
B. signalgrass plant response rating ([8]; Rate 125 g/ha, Postemergence, scale 0 (no effect) to 10 (complete control)): 2
B. signalgrass plant response rating [8, 25]: 2
Plant response rating (0 to 10; 0 is no effect, 10 is complete control), B. signalgrass ([8]; Rate 250 g/ha, Postemergence): 4
B. signalgrass plant response rating [8, 26]: 6
Soybean plant response rating [9, 21]: 0
Soybean plant response rating [9, 22]: 0
Plant response rating, Soybean [9, 23]: 4
Soybean plant response rating [9, 24]: 1
Soybean plant response rating [9, 25]: 0
Soybean plant response rating [9, 26]: 4
Rape plant response rating [10, 21]: 0
Rape plant response rating [10, 22]: 5
Plant response rating, Rape [10, 23]: 9
Rape plant response rating [10, 24]: 0
Rape plant response rating [10, 25]: 0
Plant response rating (0 to 10; 0 is no effect, 10 is complete control), Rape ([10]; Rate 250 g/ha, Postemergence): 2
Rape plant response rating [10, 26]: 4
Giant foxtail plant response rating [11, 21]: 10
Giant foxtail plant response rating [11, 22]: 10
Plant response rating, Giant foxtail [11, 23]: 10
Giant foxtail plant response rating [11, 24]: 2
Giant foxtail plant response rating [11, 25]: 10
Plant response rating (0 to 10; 0 is no effect, 10 is complete control), Giant foxtail ([11]; Rate 250 g/ha, Postemergence): 6
Giant foxtail plant response rating [11, 26]: 8
Rice plant response rating [12, 17]: 0
Rice plant response rating [12, 18]: 0
Rice plant response rating [12, 19]: 0
Rice plant response rating [12, 20]: 0
Morningglory plant response rating [13, 21]: 0
Morningglory plant response rating [13, 22]: 3
Plant response rating, Morningglory [13, 23]: 5
Morningglory plant response rating [13, 24]: 3
Morningglory plant response rating [13, 25]: 0
Plant response rating (0 to 10; 0 is no effect, 10 is complete control), Morningglory ([13]; Rate 250 g/ha, Postemergence): 5
Morningglory plant response rating [13, 26]: 8
S. Flatsedge plant response rating [14, 17]: 0
S. Flatsedge plant response rating [14, 18]: 0
S. Flatsedge plant response rating [14, 19]: 0
S. Flatsedge plant response rating [14, 20]: 0
Bedstraw plant response rating [15, 22]: 7
Plant response rating, Bedstraw [15, 23]: 10
Bedstraw plant response rating [15, 24]: 0
Bedstraw plant response rating [15, 27]: 3
Bedstraw plant response rating [15, 25]: 0
Plant response rating (0 to 10; 0 is no effect, 10 is complete control), Bedstraw ([15]; Rate 250 g/ha, Postemergence): 7
Bedstraw plant response rating [15, 26]: 7
Ducksalad plant response rating [16, 17]: 0
Ducksalad plant response rating [16, 18]: 0
Ducksalad plant response rating [16, 19]: 0
Ducksalad plant response rating [16, 20]: 0

Cc1ccccc1-n1c(=O)on(C(=O)N(c2ccc(C(C)(C)C)cc2)C(C)C)c1=O [Compound 270]
Barnyardgrass plant response rating [1, 17]: 0
Barnyardgrass plant response rating [1, 18]: 0
Barnyardgrass plant response rating [1, 19]: 0
Barnyardgrass plant response rating [1, 20]: 0
Sugarbeets plant response rating [2, 21]: 0
Sugarbeets plant response rating [2, 22]: 0
Plant response rating, Sugarbeets [2, 23]: 0
Sugarbeets plant response rating [2, 28]: 0
Sugarbeets plant response rating [2, 25]: 0
Plant response rating, Sugarbeets [2, 29]: 0
Sugarbeets plant response rating [2, 26]: 0
Nutsedge plant response rating [3, 21]: 0
Nutsedge plant response rating [3, 22]: 0
Plant response rating, Nutsedge [3, 23]: 0
Nutsedge plant response rating [3, 28]: 0
Nutsedge plant response rating [3, 25]: 0
Plant response rating, Nutsedge [3, 29]: 0
Nutsedge plant response rating [3, 26]: 0
Redroot pigweed plant response rating [4, 21]: 0
Redroot pigweed plant response rating [4, 22]: 0
Plant response rating, Redroot pigweed [4, 23]: 0
Redroot pigweed plant response rating [4, 28]: 0
Redroot pigweed plant response rating [4, 25]: 0
Plant response rating, Redroot pigweed [4, 29]: 0
Redroot pigweed plant response rating [4, 26]: 0
Corn plant response rating [5, 21]: 0
Corn plant response rating [5, 22]: 0
Plant response rating, Corn [5, 23]: 0
Corn plant response rating [5, 24]: 0
Corn plant response rating [5, 28]: 0
Corn plant response rating [5, 25]: 0
Plant response rating, Corn [5, 29]: 0
Corn plant response rating [5, 26]: 0
Velvetleaf plant response rating [6, 21]: 0
Velvetleaf plant response rating [6, 22]: 0
Plant response rating, Velvetleaf [6, 23]: 0
Velvetleaf plant response rating [6, 28]: 0
Velvetleaf plant response rating [6, 25]: 0
Plant response rating, Velvetleaf [6, 29]: 0
Velvetleaf plant response rating [6, 26]: 0
Blackgrass plant response rating [7, 21]: 0
Blackgrass plant response rating [7, 22]: 0
Plant response rating, Blackgrass [7, 23]: 0
Blackgrass plant response rating [7, 24]: 0
Blackgrass plant response rating [7, 28]: 0
Blackgrass plant response rating [7, 25]: 0
Plant response rating, Blackgrass [7, 29]: 0
Blackgrass plant response rating [7, 26]: 0
B. signalgrass plant response rating [8, 21]: 0
B. signalgrass plant response rating [8, 22]: 0
Plant response rating, B. signalgrass [8, 23]: 0
B. signalgrass plant response rating [8, 24]: 0
B. signalgrass plant response rating [8, 28]: 0
B. signalgrass plant response rating [8, 25]: 0
Plant response rating, B. signalgrass [8, 29]: 0
B. signalgrass plant response rating [8, 26]: 0
Soybean plant response rating [9, 21]: 0
Soybean plant response rating [9, 22]: 0
Plant response rating, Soybean [9, 23]: 0
Soybean plant response rating [9, 28]: 0
Soybean plant response rating [9, 25]: 0
Plant response rating, Soybean [9, 29]: 2
Soybean plant response rating [9, 26]: 2
Rape plant response rating [10, 21]: 0
Rape plant response rating [10, 22]: 0
Plant response rating, Rape [10, 23]: 0
Rape plant response rating [10, 28]: 0
Rape plant response rating [10, 25]: 0
Plant response rating, Rape [10, 29]: 0
Rape plant response rating [10, 26]: 0
Giant foxtail plant response rating [11, 21]: 0
Giant foxtail plant response rating [11, 22]: 0
Plant response rating, Giant foxtail [11, 23]: 0
Giant foxtail plant response rating [11, 28]: 0
Giant foxtail plant response rating [11, 25]: 0
Plant response rating, Giant foxtail [11, 29]: 0
Giant foxtail plant response rating [11, 26]: 0
Rice plant response rating [12, 17]: 0
Rice plant response rating [12, 18]: 0
Rice plant response rating [12, 19]: 0
Rice plant response rating [12, 20]: 0
Morningglory plant response rating [13, 21]: 0
Morningglory plant response rating [13, 22]: 0
Plant response rating, Morningglory [13, 23]: 0
Morningglory plant response rating [13, 28]: 0
Morningglory plant response rating [13, 25]: 0
Plant response rating, Morningglory [13, 29]: 0
Morningglory plant response rating [13, 26]: 0
S. Flatsedge plant response rating [14, 17]: 0
S. Flatsedge plant response rating [14, 18]: 0
S. Flatsedge plant response rating [14, 19]: 0
S. Flatsedge plant response rating [14, 20]: 0
Bedstraw plant response rating [15, 21]: 0
Bedstraw plant response rating [15, 22]: 0
Plant response rating, Bedstraw [15, 23]: 0
Bedstraw plant response rating [15, 24]: 0
Bedstraw plant response rating [15, 28]: 0
Bedstraw plant response rating [15, 25]: 0
Plant response rating, Bedstraw [15, 29]: 0
Bedstraw plant response rating [15, 26]: 0
Ducksalad plant response rating [16, 17]: 0
Ducksalad plant response rating [16, 18]: 0
Ducksalad plant response rating [16, 19]: 0
Ducksalad plant response rating [16, 20]: 0
